From the NIST ThermoML archive (doi:10.1021/je800942u)
± gives the expanded uncertainty stated by the source.

Legend:
[1] = wn = mass fraction of the nth substance listed; settings: 101 kPa, Liquid
[2] = mn = molality of the nth substance listed, in mol/kg; settings: 101 kPa, Liquid
[3] = 101 kPa, Liquid

CCO [ethanol] + O
mass density ([1]; 303.15 K, w2 = 0.15): 822.7 ± 0.8 kg/m3
viscosity ([1]; 303.15 K, w2 = 0.15): 1.383 ± 0.033 mPa·s
mass density ([1]; 303.15 K, w2 = 0.2): 836 ± 0.9 kg/m3
viscosity ([1]; 303.15 K, w2 = 0.2): 1.511 ± 0.036 mPa·s
mass density ([1]; 303.15 K, w2 = 0.25): 848.8 ± 0.9 kg/m3
viscosity ([1]; 303.15 K, w2 = 0.25): 1.611 ± 0.038 mPa·s
mass density ([1]; 308.15 K, w2 = 0.15): 818.4 ± 0.9 kg/m3
viscosity ([1]; 308.15 K, w2 = 0.15): 1.222 ± 0.03 mPa·s
mass density ([1]; 308.15 K, w2 = 0.2): 831.8 ± 0.9 kg/m3
viscosity ([1]; 308.15 K, w2 = 0.2): 1.332 ± 0.032 mPa·s
mass density ([1]; 308.15 K, w2 = 0.25): 843 ± 0.9 kg/m3
viscosity ([1]; 308.15 K, w2 = 0.25): 1.402 ± 0.033 mPa·s
mass density ([1]; 313.15 K, w2 = 0.15): 813.1 ± 0.9 kg/m3
viscosity ([1]; 313.15 K, w2 = 0.15): 1.085 ± 0.027 mPa·s
mass density ([1]; 313.15 K, w2 = 0.2): 827.1 ± 0.9 kg/m3
viscosity ([1]; 313.15 K, w2 = 0.2): 1.174 ± 0.029 mPa·s
mass density ([1]; 313.15 K, w2 = 0.25): 838.2 ± 0.9 kg/m3
viscosity ([1]; 313.15 K, w2 = 0.25): 1.229 ± 0.03 mPa·s
mass density ([1]; 318.15 K, w2 = 0.15): 807.1 ± 1 kg/m3
viscosity ([1]; 318.15 K, w2 = 0.15): 0.9649 ± 0.024 mPa·s
mass density ([1]; 318.15 K, w2 = 0.2): 821 ± 1 kg/m3
viscosity ([1]; 318.15 K, w2 = 0.2): 1.025 ± 0.025 mPa·s
mass density ([1]; 318.15 K, w2 = 0.25): 833.6 ± 1 kg/m3
viscosity ([1]; 318.15 K, w2 = 0.25): 1.085 ± 0.027 mPa·s
mass density ([1]; 323.15 K, w2 = 0.15): 801.4 ± 1 kg/m3
viscosity ([1]; 323.15 K, w2 = 0.15): 0.8601 ± 0.022 mPa·s
mass density ([1]; 323.15 K, w2 = 0.2): 814.6 ± 1 kg/m3
viscosity ([1]; 323.15 K, w2 = 0.2): 0.9113 ± 0.023 mPa·s
mass density ([1]; 323.15 K, w2 = 0.25): 827.5 ± 1 kg/m3
viscosity ([1]; 323.15 K, w2 = 0.25): 0.9573 ± 0.024 mPa·s
mass density ([1]; 328.15 K, w2 = 0.15): 796.9 ± 1 kg/m3
viscosity ([1]; 328.15 K, w2 = 0.15): 0.7734 ± 0.02 mPa·s
mass density ([1]; 328.15 K, w2 = 0.2): 809.1 ± 1.1 kg/m3
viscosity ([1]; 328.15 K, w2 = 0.2): 0.8123 ± 0.021 mPa·s
mass density ([1]; 328.15 K, w2 = 0.25): 822.5 ± 1.1 kg/m3
viscosity ([1]; 328.15 K, w2 = 0.25): 0.8538 ± 0.022 mPa·s

NCCCCCCN [1,6-hexanediamine] + CCO
mass density ([2]; 303.15 K, m1 = 0.1293): 782.3 ± 0.8 kg/m3
viscosity ([2]; 303.15 K, m1 = 0.1293): 1.011 ± 0.013 mPa·s
mass density ([2]; 303.15 K, m1 = 0.2808): 784.2 ± 0.8 kg/m3
viscosity ([2]; 303.15 K, m1 = 0.2808): 1.053 ± 0.013 mPa·s
mass density ([2]; 303.15 K, m1 = 0.4406): 786.3 ± 0.8 kg/m3
viscosity ([2]; 303.15 K, m1 = 0.4406): 1.102 ± 0.014 mPa·s
mass density ([2]; 303.15 K, m1 = 0.6113): 788.6 ± 0.8 kg/m3
viscosity ([2]; 303.15 K, m1 = 0.6113): 1.162 ± 0.014 mPa·s
mass density ([2]; 303.15 K, m1 = 0.7834): 791.1 ± 0.8 kg/m3
viscosity ([2]; 303.15 K, m1 = 0.7834): 1.202 ± 0.015 mPa·s
mass density ([2]; 303.15 K, m1 = 0.9637): 793.8 ± 0.8 kg/m3
viscosity ([2]; 303.15 K, m1 = 0.9637): 1.258 ± 0.015 mPa·s
mass density ([2]; 308.15 K, m1 = 0.1293): 777.9 ± 0.8 kg/m3
viscosity ([2]; 308.15 K, m1 = 0.1293): 0.9157 ± 0.012 mPa·s
mass density ([2]; 308.15 K, m1 = 0.2808): 779.7 ± 0.8 kg/m3
viscosity ([2]; 308.15 K, m1 = 0.2808): 0.9505 ± 0.012 mPa·s
mass density ([2]; 308.15 K, m1 = 0.4406): 781.9 ± 0.8 kg/m3
viscosity ([2]; 308.15 K, m1 = 0.4406): 0.9928 ± 0.013 mPa·s
mass density ([2]; 308.15 K, m1 = 0.6113): 784.7 ± 0.8 kg/m3
viscosity ([2]; 308.15 K, m1 = 0.6113): 1.046 ± 0.013 mPa·s
mass density ([2]; 308.15 K, m1 = 0.7834): 787.3 ± 0.8 kg/m3
viscosity ([2]; 308.15 K, m1 = 0.7834): 1.081 ± 0.013 mPa·s
mass density ([2]; 308.15 K, m1 = 0.9637): 790.1 ± 0.8 kg/m3
viscosity ([2]; 308.15 K, m1 = 0.9637): 1.133 ± 0.014 mPa·s
mass density ([2]; 313.15 K, m1 = 0.1293): 771.6 ± 0.8 kg/m3
viscosity ([2]; 313.15 K, m1 = 0.1293): 0.8341 ± 0.011 mPa·s
mass density ([2]; 313.15 K, m1 = 0.2808): 773.3 ± 0.8 kg/m3
viscosity ([2]; 313.15 K, m1 = 0.2808): 0.8606 ± 0.012 mPa·s
mass density ([2]; 313.15 K, m1 = 0.4406): 775.2 ± 0.8 kg/m3
viscosity ([2]; 313.15 K, m1 = 0.4406): 0.8994 ± 0.012 mPa·s
mass density ([2]; 313.15 K, m1 = 0.6113): 777.2 ± 0.8 kg/m3
viscosity ([2]; 313.15 K, m1 = 0.6113): 0.9437 ± 0.012 mPa·s
mass density ([2]; 313.15 K, m1 = 0.7834): 779.3 ± 0.9 kg/m3
viscosity ([2]; 313.15 K, m1 = 0.7834): 0.975 ± 0.013 mPa·s
mass density ([2]; 313.15 K, m1 = 0.9637): 781.5 ± 0.9 kg/m3
viscosity ([2]; 313.15 K, m1 = 0.9637): 1.019 ± 0.013 mPa·s
mass density ([2]; 318.15 K, m1 = 0.1293): 766.4 ± 0.9 kg/m3
viscosity ([2]; 318.15 K, m1 = 0.1293): 0.7569 ± 0.011 mPa·s
mass density ([2]; 318.15 K, m1 = 0.2808): 767.9 ± 0.9 kg/m3
viscosity ([2]; 318.15 K, m1 = 0.2808): 0.7849 ± 0.011 mPa·s
mass density ([2]; 318.15 K, m1 = 0.4406): 769.6 ± 0.9 kg/m3
viscosity ([2]; 318.15 K, m1 = 0.4406): 0.8154 ± 0.011 mPa·s
mass density ([2]; 318.15 K, m1 = 0.6113): 771.4 ± 0.9 kg/m3
viscosity ([2]; 318.15 K, m1 = 0.6113): 0.8571 ± 0.012 mPa·s
mass density ([2]; 318.15 K, m1 = 0.7834): 773.3 ± 0.9 kg/m3
viscosity ([2]; 318.15 K, m1 = 0.7834): 0.8816 ± 0.012 mPa·s
mass density ([2]; 318.15 K, m1 = 0.9637): 775.3 ± 0.9 kg/m3
viscosity ([2]; 318.15 K, m1 = 0.9637): 0.9201 ± 0.012 mPa·s
mass density ([2]; 323.15 K, m1 = 0.1293): 761.4 ± 0.9 kg/m3
viscosity ([2]; 323.15 K, m1 = 0.1293): 0.6866 ± 0.01 mPa·s
mass density ([2]; 323.15 K, m1 = 0.2808): 762.8 ± 0.9 kg/m3
viscosity ([2]; 323.15 K, m1 = 0.2808): 0.7105 ± 0.01 mPa·s
mass density ([2]; 323.15 K, m1 = 0.4406): 764.3 ± 0.9 kg/m3
viscosity ([2]; 323.15 K, m1 = 0.4406): 0.7356 ± 0.011 mPa·s
mass density ([2]; 323.15 K, m1 = 0.6113): 766 ± 0.9 kg/m3
viscosity ([2]; 323.15 K, m1 = 0.6113): 0.7761 ± 0.011 mPa·s
mass density ([2]; 323.15 K, m1 = 0.7834): 767.8 ± 0.9 kg/m3
viscosity ([2]; 323.15 K, m1 = 0.7834): 0.798 ± 0.011 mPa·s
mass density ([2]; 323.15 K, m1 = 0.9637): 769.7 ± 0.9 kg/m3
viscosity ([2]; 323.15 K, m1 = 0.9637): 0.8301 ± 0.011 mPa·s
mass density ([2]; 328.15 K, m1 = 0.1293): 755.5 ± 1 kg/m3
viscosity ([2]; 328.15 K, m1 = 0.1293): 0.6275 ± 0.0097 mPa·s
mass density ([2]; 328.15 K, m1 = 0.2808): 756.8 ± 1 kg/m3
viscosity ([2]; 328.15 K, m1 = 0.2808): 0.6485 ± 0.0099 mPa·s
mass density ([2]; 328.15 K, m1 = 0.4406): 758.3 ± 1 kg/m3
viscosity ([2]; 328.15 K, m1 = 0.4406): 0.6737 ± 0.01 mPa·s
mass density ([2]; 328.15 K, m1 = 0.6113): 759.9 ± 1 kg/m3
viscosity ([2]; 328.15 K, m1 = 0.6113): 0.7013 ± 0.01 mPa·s
mass density ([2]; 328.15 K, m1 = 0.7834): 761.6 ± 1 kg/m3
viscosity ([2]; 328.15 K, m1 = 0.7834): 0.7227 ± 0.01 mPa·s
mass density ([2]; 328.15 K, m1 = 0.9637): 763.4 ± 1 kg/m3
viscosity ([2]; 328.15 K, m1 = 0.9637): 0.7564 ± 0.011 mPa·s

CCO [ethanol]
mass density ([3]; 303.15 K): 780.8 ± 0.8 kg/m3
viscosity ([3]; 303.15 K): 0.979 ± 0.013 mPa·s
mass density ([3]; 308.15 K): 776.5 ± 0.8 kg/m3
viscosity ([3]; 308.15 K): 0.8877 ± 0.012 mPa·s
mass density ([3]; 313.15 K): 770.3 ± 0.8 kg/m3
viscosity ([3]; 313.15 K): 0.8086 ± 0.011 mPa·s
mass density ([3]; 318.15 K): 765.2 ± 0.9 kg/m3
viscosity ([3]; 318.15 K): 0.7335 ± 0.011 mPa·s
mass density ([3]; 323.15 K): 760.3 ± 0.9 kg/m3
viscosity ([3]; 323.15 K): 0.6677 ± 0.01 mPa·s
mass density ([3]; 328.15 K): 754.5 ± 1 kg/m3
viscosity ([3]; 328.15 K): 0.6104 ± 0.0096 mPa·s

CCO [ethanol] + NCCCCCCN
mass density ([2]; 303.15 K, m2 = 0): 780.8 ± 0.8 kg/m3
viscosity ([2]; 303.15 K, m2 = 0): 0.979 ± 0.013 mPa·s
mass density ([2]; 308.15 K, m2 = 0): 776.5 ± 0.8 kg/m3
viscosity ([2]; 308.15 K, m2 = 0): 0.8877 ± 0.012 mPa·s
mass density ([2]; 313.15 K, m2 = 0): 770.3 ± 0.8 kg/m3
viscosity ([2]; 313.15 K, m2 = 0): 0.8086 ± 0.011 mPa·s
mass density ([2]; 318.15 K, m2 = 0): 765.2 ± 0.9 kg/m3
viscosity ([2]; 318.15 K, m2 = 0): 0.7335 ± 0.011 mPa·s
mass density ([2]; 323.15 K, m2 = 0): 760.3 ± 0.9 kg/m3
viscosity ([2]; 323.15 K, m2 = 0): 0.6677 ± 0.01 mPa·s
mass density ([2]; 328.15 K, m2 = 0): 754.5 ± 1 kg/m3
viscosity ([2]; 328.15 K, m2 = 0): 0.6104 ± 0.0096 mPa·s
